Assay results as given in patent US8350079B2, “Treprostinil formulation” (United Therapeutics Corporation, priority 2008, dated 2013).

Assays:
[1] = Accelerated stability of treprostinil monohydrate at 25, 30 and 40° C. (Lot #01M07033); assay type: physicochemical
Description: III. Accelerated Stability Data at 30 and 40° C. (Lot #01M07033).
In the present experiment, 500 mg Treprostinil monohydrate samples were stored in Nalgene 125 ml, HDPE bottles. The experimental procedure used in this experiment was the same as the described above procedure for lot D-1007-089.

[2] = Stability tests of treprostinil forms (dimer formation, room temperature stability); assay type: physicochemical; details: room temperature
Description: The anhydrous form of treprostinil (TREPROSTINIL) has been previously described, e.g., in J. Org. Chem. 2004, 69, 1890-1902. […] A larger amount of dimers can form at higher temperatures. However, dimer formation is negligible at 5° C. Therefore, anhydrous treprostinil must be refrigerated for storage and transport. In the past, treprostinil had to be refrigerated and shipped with ice packs to maintain low (2° C.-8° C.) temperatures.
The instability of anhydrous treprostinil also imposes challenges to its preparation. To obtain anhydrous treprostinil, wet compound from recrystallization was heated in a vacuum. […] Therefore, heating temperature must be carefully controlled to avoid high heat when drying treprostinil in order to remove all water, otherwise these two dimer impurities will be produced.
Data has been generated to characterize a monohydrate form of treprostinil. […] Treprostinil monohydrate can be stored and shipped with no special handling.

SMILES: CCCCC[C@H](O)CC[C@@H]1[C@H]2Cc3cccc(OCC(=O)O)c3C[C@H]2C[C@H]1O [TREPROSTINIL Lot# D-1007-089, treprostinil monohydrate]
- 3AU90 ([1]; 3-Months, 25° C./60% RH): <0.05%
- 750W93 ([1]; 3-Months, 25° C./60% RH): 0.07%
- 751W93 ([1]; 3-Months, 25° C./60% RH): <0.05%
- Impurity 1 (RRT: 0.58) ([1]; 3-Months, 25° C./60% RH): 0.05%
- Total impurities ([1]; 3-Months, 25° C./60% RH): 0.4%
- UT-15 Assay ([1]; 3-Months, 25° C./60% RH): 99.5%
- UT-15 Ethyl Ester ([1]; 3-Months, 25° C./60% RH): 0.2%
- Water, KF ([1]; 3-Months, 25° C./60% RH): 4.8%
- 3AU90 ([1]; 3-Months, 30° C./65% RH): <0.05%
- 750W93 ([1]; 3-Months, 30° C./65% RH): 0.07%
- 751W93 ([1]; 3-Months, 30° C./65% RH): <0.05%
- Impurity 1 (RRT: 0.58) ([1]; 3-Months, 30° C./65% RH): 0.05%
- Total impurities ([1]; 3-Months, 30° C./65% RH): 0.4%
- UT-15 Assay ([1]; 3-Months, 30° C./65% RH): 99.5%
- UT-15 Ethyl Ester ([1]; 3-Months, 30° C./65% RH): 0.2%
- Water, KF ([1]; 3-Months, 30° C./65% RH): 4.8%
- 3AU90 ([1]; 3-Months, 40 C./75% RH): <0.05%
- 750W93 ([1]; 3-Months, 40 C./75% RH): 0.08%
- 751W93 ([1]; 3-Months, 40 C./75% RH): <0.05%
- Impurity 1 (RRT: 0.58) ([1]; 3-Months, 40 C./75% RH): 0.05%
- Total impurities ([1]; 3-Months, 40 C./75% RH): 0.4%
- UT-15 Assay ([1]; 3-Months, 40 C./75% RH): 99.4%
- UT-15 Ethyl Ester ([1]; 3-Months, 40 C./75% RH): 0.2%
- Water, KF ([1]; 3-Months, 40 C./75% RH): 4.8%
- 3AU90 ([1]; 6-Months, 25° C./60% RH): 0.06%
- 750W93 ([1]; 6-Months, 25° C./60% RH): 0.07%
- 751W93 ([1]; 6-Months, 25° C./60% RH): <0.05%
- Total impurities ([1]; 6-Months, 25° C./60% RH): 0.4%
- UT-15 Assay ([1]; 6-Months, 25° C./60% RH): 99.0%
- UT-15 Ethyl Ester ([1]; 6-Months, 25° C./60% RH): 0.2%
- Water, KF ([1]; 6-Months, 25° C./60% RH): 4.7%
- 3AU90 ([1]; 6-Months, 30° C./65% RH): 0.06%
- 750W93 ([1]; 6-Months, 30° C./65% RH): 0.07%
- 751W93 ([1]; 6-Months, 30° C./65% RH): <0.05%
- Total impurities ([1]; 6-Months, 30° C./65% RH): 0.4%
- UT-15 Assay ([1]; 6-Months, 30° C./65% RH): 99.1%
- UT-15 Ethyl Ester ([1]; 6-Months, 30° C./65% RH): 0.2%
- Water, KF ([1]; 6-Months, 30° C./65% RH): 4.7%
- 3AU90 ([1]; 6-Months, 40 C./75% RH): 0.07%
- 750W93 ([1]; 6-Months, 40 C./75% RH): 0.09%
- 751W93 ([1]; 6-Months, 40 C./75% RH): 0.05%
- Total impurities ([1]; 6-Months, 40 C./75% RH): 0.4%
- UT-15 Assay ([1]; 6-Months, 40 C./75% RH): 99.7%
- UT-15 Ethyl Ester ([1]; 6-Months, 40 C./75% RH): 0.2%
- Water, KF ([1]; 6-Months, 40 C./75% RH): 4.7%
- 3AU90 ([1]; 12-Months, 25° C./60% RH): <0.05%
- 750W93 ([1]; 12-Months, 25° C./60% RH): 0.08%
- 751W93 ([1]; 12-Months, 25° C./60% RH): <0.05%
- Impurity 1 (RRT: 0.58) ([1]; 12-Months, 25° C./60% RH): 0.06%
- Total impurities ([1]; 12-Months, 25° C./60% RH): 0.4%
- UT-15 Assay ([1]; 12-Months, 25° C./60% RH): 99.8%
- UT-15 Ethyl Ester ([1]; 12-Months, 25° C./60% RH): 0.2%
- Water, KF ([1]; 12-Months, 25° C./60% RH): 4.7%
- 3AU90 ([1]; 12-Months, 40 C./75% RH): <0.05%
- 750W93 ([1]; 12-Months, 40 C./75% RH): 0.09%
- 751W93 ([1]; 12-Months, 40 C./75% RH): 0.05%
- Impurity 1 (RRT: 0.58) ([1]; 12-Months, 40 C./75% RH): 0.05%
- Total impurities ([1]; 12-Months, 40 C./75% RH): 0.4%
- UT-15 Assay ([1]; 12-Months, 40 C./75% RH): 98.6%
- UT-15 Ethyl Ester ([1]; 12-Months, 40 C./75% RH): 0.2%
- Water, KF ([1]; 12-Months, 40 C./75% RH): 4.8%
- 3AU90 ([1]; Initial): 0.1%
- 750W93 ([1]; Initial): 0.08%
- 751W93 ([1]; Initial): <0.05%
- Total impurities ([1]; Initial): 0.4%
- UT-15 Assay ([1]; Initial): 98.7%
- UT-15 Ethyl Ester ([1]; Initial): 0.2%
- Water, KF ([1]; Initial): 4.5%
- Stability at room temperature [2]: stable at room temperature
